The source of these data is patent US12419966B2, “In vivo radical-mediated polymerization for targeted delivery of trophic factors” (RUTGERS, THE STATE UNIVERSITY OF NEW JERSEY, priority 2017, dated 2025).

The structures appear in SMILES notation.

The test system of this data set is Rat cortical neurons. Kind of data set: Rat cortical neuron cytotoxicity (MTT). As to conditions: above 500 μM. The class given is cell-based. The procedure: Rat Cortical Neuron Culture and Cellular Protection Studies (Cytotoxicity and Protection): Rat cortical neurons were isolated from a timed pregnant animal at embryonic day 18 as described in the literature via techniques commonly employed in the literature. Neurons were cultured in Neurobasal media containing 2% B27 supplement, 1% KCl, 1% penicillin/streptomycin, and 0.5% L-glutamine and seeded into 96 well plates at a density of 100,000 cells/well. […] Cellular metabolic activity was then evaluated using the Vybrant MTT assay (Life Technologies) according to the manufacturer's instructions. […] Metabolic activity was again measured using the MTT assay.
(3-(4,5-dimethylthiazol-2-yl)-2,5-diphenyltetrazolium bromide) (MTT) was added to the cultures at 12 mM and allowed to incubate for 4 hours at 37° C. MTT was metabolized by mitochondrial activity to form an insoluble formazan product. The formazan product was solubilized by the addition of sodium dodecyl sulfate and further incubation for 4 hours. Absorbance measurements at 570 nm were collected to determine the amount of MTT that was metabolized by the culture and viability was reported as a percentage of MTT metabolized by uninjured control cultures.

For the compound `O=C1O[C@H]([C@@H](O)CO)C(O)=C1O` [ascorbic acid], the “cellular activity of rat cortical neurons” value is “decreases observed”.
